Reference: PMC11011439, “Influence of Molecular Design on the Tumor Targeting and Biodistribution of PSMA-Binding Tracers Labeled with Technetium-99m” (International Journal of Molecular Sciences, 2024)
Marks after values point to notes of the source that are not given here.

Assays:
[1] = Stability of the [99mTc]Tc-maG3 complex in PBS and under cysteine challenge (radio-HPLC); type: physicochemical
Procedure: The iTLC data were cross-validated using radio-HPLC analysis, performed using a Hitachi Chromaster HPLC system with a radioactivity detector and Phenomenex Luna® C18 column (100 Å; 150 × 4.6 mm; 5 µm) at room temperature (20 °C), in the following conditions: solvent A: 0.1% trifluoroacetic acid (TFA) in H2O, solvent B: 0.1% TFA in acetonitrile, flow rate: 1 mL/min. For identity and purity analysis of [^99mTc]Tc-BQ0411 and [^99mTc]Tc-BQ0412, the method with a gradient from 5 to 60% solvent B over 20 min was used.
To evaluate the chemical stability of the [^99mTc]Tc-maG3 complex, fractions of radiolabeled conjugates (10 µL, 0.25 µg) were incubated with a 300× molar excess of cysteine or with PBS at room temperature for 1 h. The test was run in triplicate.

[2] = Octanol/water distribution coefficient (LogD); type: physicochemical; conditions: n-octanol / Milli-Q water
Procedure: The LogD was determined experimentally based on the procedure described earlier. Briefly, the radiolabeled compound of interest was added to a LoBind Eppendorf tube (Eppendorf, Hamburg, Germany) containing Milli-Q water (500 μL) and n-octanol (500 μL), and the mixture was vortexed and centrifuged. Thereafter, three fractions from each phase were collected and the activity was measured using a gamma counter. The LogD was calculated by dividing the average activity measured in octanol by the average activity measured in water.

[3] = biological target: T1, PSMA (Homo sapiens, UniProt Q04609); experiment: In vitro binding specificity (saturation with non-labeled PSMA-11) on PC3-pip cells; conditions: 2 nM tracer, 250-fold molar excess of PSMA-11, 1 h, 37 °C
T1 construct: expressed in transfected cells; host or cells: PC3-pip cells (from Prof. Martin G. Pomper, Johns Hopkins University)
T1 sequence (Q04609 whole entry): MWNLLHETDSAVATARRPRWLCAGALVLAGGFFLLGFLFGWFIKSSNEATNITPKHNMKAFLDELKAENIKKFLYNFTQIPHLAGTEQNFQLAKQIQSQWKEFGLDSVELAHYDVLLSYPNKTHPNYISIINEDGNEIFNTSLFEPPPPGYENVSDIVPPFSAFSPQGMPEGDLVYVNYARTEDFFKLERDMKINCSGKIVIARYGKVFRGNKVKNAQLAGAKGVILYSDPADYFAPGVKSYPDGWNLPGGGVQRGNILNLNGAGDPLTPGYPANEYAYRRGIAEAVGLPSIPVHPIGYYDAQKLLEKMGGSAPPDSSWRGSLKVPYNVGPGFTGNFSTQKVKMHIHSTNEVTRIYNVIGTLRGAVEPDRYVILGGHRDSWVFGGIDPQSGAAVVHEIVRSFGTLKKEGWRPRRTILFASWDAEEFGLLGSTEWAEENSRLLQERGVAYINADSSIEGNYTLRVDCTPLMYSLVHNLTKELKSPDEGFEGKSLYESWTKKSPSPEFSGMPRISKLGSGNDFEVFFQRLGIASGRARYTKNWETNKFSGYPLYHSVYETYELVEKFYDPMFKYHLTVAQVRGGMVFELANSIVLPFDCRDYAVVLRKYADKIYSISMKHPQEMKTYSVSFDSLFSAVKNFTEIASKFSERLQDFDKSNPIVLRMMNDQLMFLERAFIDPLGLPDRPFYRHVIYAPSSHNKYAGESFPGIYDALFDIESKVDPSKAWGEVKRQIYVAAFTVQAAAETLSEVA
Procedure: For the in vitro binding specificity test, approximately 8 × 10^5 of PC3-pip cells per well were seeded in 6-well plates 24 h before the experiment. Cells in three control wells were pre-saturated with a 250-fold excess of non-labeled PSMA-11 15 min before the addition of radiotracers, while the second set was treated with complete media. After 15 min of incubation at room temperature, [^99mTc]Tc-labeled radioligands were added to all wells to reach a concentration of 2 nM. After one hour of incubation at 37 °C, the cells were washed with PBS solution, detached, and collected. Cell-associated activity was measured using a gamma counter and presented as the percentage of added activity.

[4] = biological target: T1, PSMA; experiment: Real-time binding kinetics on living PC3-pip cells (LigandTracer Yellow); conditions: 5 nM tracer, 1:2 interaction model
Procedure: The binding kinetics of [^99mTc]Tc-labeled BQ0411, BQ0412, and BQ0413 were measured in real time using LigandTracer Yellow Instruments (Ridgeview Instruments AB, Uppsala, Sweden) on PC3-pip cells, as described earlier. The activity binding was recorded at 5 nM on the radiolabeled tracers for 150 min. After measuring the binding kinetics, the medium containing the labeled tracer was replaced with fresh medium, and the dissociation was monitored over 7 h. […]

[5] = system: PC3-pip cells; experiment: Cellular processing (internalization) during continuous incubation; type: cell-based; conditions: 2 nM, 37 °C
Procedure: To evaluate the cellular processing of [^99mTc]Tc-labeled BQ0411 and BQ0412, PC3-pip cells were incubated with the radiolabeled tracer (2 nM), and at predetermined time points (1, 2, 4, and 8 h), cells were treated with 0.5 mL of 4 M urea solution in a 0.2 M glycine buffer, pH 2.5, for 5 min on ice. After that, the acidic supernatant was collected, and this fraction was considered to be the membrane-bound activity. To lyse the cells, 0.5 mL of 1 M sodium hydroxide solution was added and incubated at 37 °C for at least 20 min. The alkaline-containing solution was collected, and the basic fraction was considered to be the internalized activity.

[6] = Biodistribution in NMRI mice; type: in vivo; conditions: for activity in carcass / activity in intestines with content / uptake in blood / uptake in kidney / uptake in liver / uptake in lung / uptake in salivary glands / uptake in spleen / uptake in stomach: 40 pmol/mouse iv
Procedure: Four NMRI mice were intravenously injected with 40 pmol of the radiotracer (60 kBq, the mass of the injected compound was adjusted with an unlabeled tracer). The mice were euthanized with a lethal intraperitoneal injection of ketamine/xylazine, followed by exsanguination at 3 and 24 h post-injection (pi). The organs of interest were collected, weighed, and measured for their activity content using a gamma counter. The uptake activity in organs was calculated as the percentage of injected activity per gram (%IA/g) for the blood, salivary glands, lungs, liver, spleen, stomach, and kidneys and as %IA for the remaining carcass and the rest of the intestines with content.

[7] = system: PSMA-expressing prostate cancer xenografts (PC3-pip); experiment: Biodistribution and tumor targeting in PC3-pip tumor-bearing mice; type: in vivo, BALB/c nu/nu mice; conditions: 3 h pi
Procedure: PSMA-expressing prostate cancer xenografts were implanted in BALB/c nu/nu mice by subcutaneous injection of PC3-pip cell suspension in PBS (10^7 cells/animal in 100 µL). The average tumor weight was 0.3 ± 0.2 g at the time of the experiment. Four mice per data point were used. Mice were intravenously injected with 5 nmol of the radiotracer (60 kBq, the mass of the injected compound was adjusted with an unlabeled tracer). The mice were euthanized 3 h pi, and the samples were treated as described above.

CC(=O)N[C@@H](CCCCNC(=O)C[N]1C(=O)C[N]2C(=O)C[N]3C(=O)C[S][99Tc-]132=[O])C(=O)NCCCCCCCC(=O)N[C@@H](Cc1ccc(O)cc1)C(=O)N[C@@H](Cc1ccc2ccccc2c1)C(=O)NCCCC[C@H](NC(=O)N[C@@H](CCC(=O)O)C(=O)O)C(=O)O [[^99mTc]Tc-BQ0412]
release of activity under cysteine challenge ([1]; 300-fold molar excess of cysteine, room temperature, 1 h): around 60% | stability during incubation in PBS ([1]; PBS, room temperature, 1 h): stable | share of activity in radio-HPLC peak, retention time 6.2 min ([1]; cysteine challenge, radiolabeled product, speculated Tc–cysteine complex): 32.5% | share of activity in radio-HPLC peak, retention time 14.1 min ([1]; cysteine challenge, radiolabeled product, speculated intermediate transchelation product): 25.5% | logD (octanol–water distribution coefficient) [2]: −2.3 ± 0.1 | binding to PC3-pip cells after pre-treatment with excess non-labeled PSMA-11 [3]: significantly (p ˂ 0.0001) decreased | ka1 [4]: 31000 M⁻¹ s⁻¹ | ka2 [4]: 46000 M⁻¹ s⁻¹ | kd1 [4]: 1.4e-05 s⁻¹ | kd2 [4]: 1.6e-05 s⁻¹ | internalized activity (of cell-associated activity) ([5]; 4 h of continuous incubation): 43 ± 1% | internalized activity (of cell-associated activity) ([5]; after 4 h (8 h of continuous incubation)): 32 ± 1% | activity in carcass ([6]; 3 h pi): 2.9 ± 0.1 *^,c %IA/sample | activity in intestines with content ([6]; 3 h pi): 70 ± 7 *^,c %IA/sample | uptake in blood ([6]; 3 h pi): 0.5 ± 0.1 %IA/g | uptake in kidney ([6]; 3 h pi): 56 ± 9 *^,c %IA/g | uptake in liver ([6]; 3 h pi): 3 ± 1 *^,c %IA/g | uptake in lung ([6]; 3 h pi): 0.3 ± 0.1 *^,c %IA/g | uptake in salivary glands ([6]; 3 h pi): 0.24 ± 0.03 *^,c %IA/g | uptake in spleen ([6]; 3 h pi): 0.23 ± 0.07 *^,c %IA/g | uptake in stomach ([6]; 3 h pi): 0.17 ± 0.03 *^,c %IA/g | activity in carcass ([6]; 24 h pi): 0.12 ± 0.03 ^c %IA/sample | activity in intestines with content ([6]; 24 h pi): 0.16 ± 0.04 ^c %IA/sample | uptake in blood ([6]; 24 h pi): 0.016 ± 0.002 ^c %IA/g | uptake in kidney ([6]; 24 h pi): 1.1 ± 0.3 ^c %IA/g | uptake in liver ([6]; 24 h pi): 0.016 ± 0.004 ^c %IA/g | uptake in lung ([6]; 24 h pi): 0.014 ± 0.008 ^c %IA/g | uptake in salivary glands ([6]; 24 h pi): 0.015 ± 0.006 ^c %IA/g | uptake in spleen ([6]; 24 h pi): 0.007 ± 0.005 %IA/g | uptake in stomach ([6]; 24 h pi): 0.07 ± 0.05 ^c %IA/g | uptake in intestines with content, fold higher than [99mTc]Tc-BQ0411 ([6]; 3 h pi): 1.6 fold | uptake in kidneys, fold lower than [99mTc]Tc-BQ0411 ([6]; 3 h pi): 2.3 fold | activity remaining in the body ([6]; 3 h pi, excluding activity in the intestines with content): 20–30 % from injected | washout of activity from kidneys ([6]; 24 h pi compared to 3 h pi): 98% | activity in carcass ([7]; 5 nmol/mouse iv): 2.6 ± 1.3 %IA/sample | activity in intestines with content ([7]; 5 nmol/mouse iv): 69 ± 17 ^c %IA/sample | uptake in blood ([7]; 5 nmol/mouse iv): 0.5 ± 0.1 %IA/g | uptake in bone ([7]; 5 nmol/mouse iv): 0.15 ± 0.07 %IA/g | uptake in kidney ([7]; 5 nmol/mouse iv): 16 ± 5 %IA/g | uptake in liver ([7]; 5 nmol/mouse iv): 0.5 ± 0.1 %IA/g | uptake in lung ([7]; 5 nmol/mouse iv): 0.5 ± 0.1 %IA/g | uptake in muscle ([7]; 5 nmol/mouse iv): 0.2 ± 0.1 %IA/g | uptake in pancreas ([7]; 5 nmol/mouse iv): 0.4 ± 0.3 %IA/g | uptake in salivary glands ([7]; 5 nmol/mouse iv): 0.2 ± 0.1 ^c %IA/g | uptake in small intestine ([7]; 5 nmol/mouse iv): 1.2 ± 0.7 ^c %IA/g | uptake in spleen ([7]; 5 nmol/mouse iv): 0.6 ± 0.3 %IA/g | uptake in stomach ([7]; 5 nmol/mouse iv): 0.3 ± 0.2 %IA/g | uptake in tumor ([7]; 5 nmol/mouse iv): 17 ± 5 %IA/g | tumor-to-blood ratio ([7]; 5 nmol/mouse): 35 ± 4 ^c | tumor-to-bone ratio ([7]; 5 nmol/mouse): 128 ± 38 | tumor-to-kidney ratio ([7]; 5 nmol/mouse): 1.1 ± 0.1 | tumor-to-liver ratio ([7]; 5 nmol/mouse): 35 ± 5 ^c | tumor-to-lung ratio ([7]; 5 nmol/mouse): 39 ± 6 | tumor-to-muscle ratio ([7]; 5 nmol/mouse): 143 ± 58 ^c | tumor-to-pancreas ratio ([7]; 5 nmol/mouse): 82 ± 33 | tumor-to-salivary ratio ([7]; 5 nmol/mouse): 90 ± 16 ^c | tumor-to-small intestine ratio ([7]; 5 nmol/mouse): 19 ± 9 ^c | tumor-to-spleen ratio ([7]; 5 nmol/mouse): 26 ± 6 | tumor-to-stomach ratio ([7]; 5 nmol/mouse): 77 ± 29 | activity uptake in the gastrointestinal tract (with content) [7]: over 40 %IA
